# Measurements: patent US12377110B2, “Fospropofol methods and compositions” (Epalex Corporation, priority 2019, dated 2025)
# Where two headings read alike, the source gives them in different places.
# Tests used:
# [1] = Study A16 Part 1: PK of single ascending oral doses of fospropofol disodium (200 to 2000 mg), fasted healthy adults; type: in vivo, human; details: for Tmax: read-out: Fospropofol Tmax
# Method: Part 1 of Study A16 was a double-blind, randomized, placebo-controlled study to investigate the safety-tolerability and PK of oral administration of single ascending doses of fospropofol disodium to healthy adult male and female volunteers.
# Subjects were healthy adults (age 18-55 years inclusive, BMI 18-29.9 kg/m^2). Separate cohorts of 12 subjects each were randomized to receive fospropofol disodium at doses of 200, 400, 800, 1000, 1200, 1600, or 2000 mg (n=10 per cohort) or matching placebo (n=2 per cohort).
# Subjects were admitted to the clinical unit for an overnight fast (Day −1), administered study drug on Day 1, and remained in the clinical unit until Day 2.
# Fospropofol disodium was formulated as powder in an HPMC capsule, each capsule containing 200 mg of fospropofol disodium (weight adjusted for water content). Placebo was administered as an appropriate number of matching capsules.
# Based on PK results from the early cohorts, sampling times were optimized beginning with Cohort 3 (800 mg) to preclose, 5, 10, 15, 20, 25, 30, 37, and 45, minutes and 1, 2, 4, 6, and 9 hours after closing.
# [2] = Study No. 15-3 toxicokinetics of fospropofol and propofol in plasma; type: in vivo, Sprague-Dawley rats; details: for AUC(0-t) / Cmax / Tmax: Sprague-Dawley, rat, plasma, po, oral gavage fospropofol disodium; for AUC(0-t): read-out: Fospropofol AUC0-6 hr; for Cmax: read-out: Fospropofol Cmax; for Tmax: read-out: Fospropofol Tmax
# Method: The purpose of Study No. 15-3 (GLP) was to determine the potential toxicity of fospropofol in Sprague-Dawley rats when administered once daily by oral gavage for 14 days. […] The cause of death for the three 250 mg/kg/day group main study females found dead could not be determined, but was considered related to the pharmacodynamic effects of fospropofol, based on the time of death relative to the time of close administration, and the clinical signs recorded before death. Clinical observations during the closing period for these animals included labored breathing, prostrate, splayed hindlimbs, uncoordinated movement, decreased activity, and eyes closed.
# [3] = oral fospropofol disodium 1200 mg, Fasted (Cohort 5), n = 10, mean
# [4] = subjects 301-312 (800 mg cohort)
# [5] = female, 50 mg/kg, Female, 50 mg/kg, Day 1
# [6] = female, 50 mg/kg, Female, 50 mg/kg, Day 14
# [7] = female, 100 mg/kg, Female, 100 mg/kg, Day 1
# [8] = female, 100 mg/kg, Female, 100 mg/kg, Day 14
# [9] = female, 250 mg/kg, Female, 250 mg/kg, Day 1
# [10] = female, 250 mg/kg, Female, 250 mg/kg, Day 14
# [11] = male, 50 mg/kg, Male, 50 mg/kg, Day 1
# [12] = male, 50 mg/kg, Male, 50 mg/kg, Day 14
# [13] = male, 100 mg/kg, Male, 100 mg/kg, Day 1
# [14] = male, 100 mg/kg, Male, 100 mg/kg, Day 14
# [15] = male, 250 mg/kg, Male, 250 mg/kg, Day 1
# [16] = male, 250 mg/kg, Male, 250 mg/kg, Day 14
smiles,measurement,setting,value
"CC(C)c1cccc(C(C)C)c1OCOP(=O)(O)O [fospropofol, (2,6-diisopropylphenoxy)methyl dihydrogen phosphate]",AUC,"[1]; female, human, plasma, oral, 800 mg, females only (800 mg cohort), Mean, read-out: Fospropofol Auc1",3050 ng·h/mL
same,AUC,"[1]; female, human, plasma, oral, 800 mg, females only (800 mg cohort), Mean, read-out: Fospropofol Auc2",3710 ng·h/mL
same,AUC,"[1]; female, human, plasma, oral, 800 mg, females only (800 mg cohort), Mean, read-out: Fospropofol Auc4",3870 ng·h/mL
same,Cmax,"[1]; female, human, plasma, oral, 800 mg, females only (800 mg cohort), Mean, read-out: Fospropofol Cmax",6730 ng/mL
same,Tmax,"[1]; female, human, plasma, oral, 800 mg, females only (800 mg cohort), Mean",22.2 min
same,AUC,"[1]; female, human, plasma, oral, 800 mg, females only (800 mg cohort), individual subjects (Subject No. in c0), read-out: Fospropofol Auc1",4160 ng·h/mL
same,AUC,"[1]; female, human, plasma, oral, 800 mg, females only (800 mg cohort), individual subjects (Subject No. in c0), read-out: Fospropofol Auc2",5000 ng·h/mL
same,AUC,"[1]; female, human, plasma, oral, 800 mg, females only (800 mg cohort), individual subjects (Subject No. in c0), read-out: Fospropofol Auc4",5160 ng·h/mL
same,Tmax,"[1]; female, human, plasma, oral, 800 mg, females only (800 mg cohort), individual subjects (Subject No. in c0)",30 min
same,Fospropofol Auc1 CV (%),[1]; females only (800 mg cohort),23.3%
same,Fospropofol Auc2 CV (%),[1]; females only (800 mg cohort),23.1%
same,Fospropofol Auc4 CV (%),[1]; females only (800 mg cohort),23.3%
same,Fospropofol Cmax CV (%),[1]; females only (800 mg cohort),32.2%
same,Fospropofol Tmax CV (%),[1]; females only (800 mg cohort),27.3%
same,Fospropofol CL/F,"[1]; oral fospropofol disodium 200 mg, mean",277 L/h
same,Fospropofol CL/F,"[1]; oral fospropofol disodium 400 mg, mean",211 L/h
same,Fospropofol CL/F,"[1]; oral fospropofol disodium 800 mg, mean",254 L/h
same,Fospropofol CL/F,"[1]; oral fospropofol disodium 1000 mg, mean",229 L/h
same,Fospropofol AUC0-T,[1]; [3],4399 ng·h/mL
same,Fospropofol CL/F,[1]; [3],288 L/h
same,Fospropofol CL/F,"[1]; oral fospropofol disodium 1200 mg, mean",288 L/h
same,Fospropofol CL/F,"[1]; oral fospropofol disodium 1600 mg, mean",270 L/h
same,Fospropofol CL/F,"[1]; oral fospropofol disodium 2000 mg, mean",204 L/h
same,Fospropofol AUC1 CV (%),[1]; [4],23.6%
same,Fospropofol AUC2 CV (%),[1]; [4],26.0%
same,Fospropofol AUC4 CV (%),[1]; [4],27.2%
same,Fospropofol Cmax CV (%),[1]; [4],30.7%
same,Fospropofol Tmax CV (%),[1]; [4],29.2%
same,Increase of fospropofol Cmax and AUC0-6hr with dose,"[2]; 50, 100, and 250 mg/kg/day, Day 1 and Day 14",greater than close-proportional
same,AUC(0-t),[2]; [5],166 ng·h/mL
same,Cmax,[2]; [5],582 ng/mL
same,Tmax,[2]; [5],4.98 min
same,AUC(0-t),[2]; [6],160 ng·h/mL
same,Cmax,[2]; [6],341 ng/mL
same,Tmax,[2]; [6],15 min
same,AUC(0-t),[2]; [7],827 ng·h/mL
same,Cmax,[2]; [7],1630 ng/mL
same,Tmax,[2]; [7],4.98 min
same,AUC(0-t),[2]; [8],1170 ng·h/mL
same,Cmax,[2]; [8],2560 ng/mL
same,Tmax,[2]; [8],4.98 min
same,AUC(0-t),[2]; [9],4630 ng·h/mL
same,Cmax,[2]; [9],8400 ng/mL
same,Tmax,[2]; [9],4.98 min
same,AUC(0-t),[2]; [10],3810 ng·h/mL
same,Cmax,[2]; [10],8440 ng/mL
same,Tmax,[2]; [10],4.98 min
same,Fospropofol AUC0-6hr following repeated administration,[2]; male and female rats,did not appear to change
same,AUC(0-t),[2]; [11],97.1 ng·h/mL
same,Cmax,[2]; [11],178 ng/mL
same,Tmax,[2]; [11],4.98 min
same,AUC(0-t),[2]; [12],96.9 ng·h/mL
same,Cmax,[2]; [12],149 ng/mL
same,Tmax,[2]; [12],4.98 min
same,AUC(0-t),[2]; [13],386 ng·h/mL
same,Cmax,[2]; [13],930 ng/mL
same,Tmax,[2]; [13],4.98 min
same,AUC(0-t),[2]; [14],370 ng·h/mL
same,Cmax,[2]; [14],1360 ng/mL
same,Tmax,[2]; [14],4.98 min
same,AUC(0-t),[2]; [15],3720 ng·h/mL
same,Cmax,[2]; [15],8510 ng/mL
same,Tmax,[2]; [15],4.98 min
same,AUC(0-t),[2]; [16],2130 ng·h/mL
same,Cmax,[2]; [16],5020 ng/mL
same,Tmax,[2]; [16],4.98 min
same,Dependence of systemic exposure on sex,"[2]; rats, 14 days oral gavage fospropofol disodium",greater exposure in females
